Measured values from patent US6143763A, “Carbostyril derivatives” (D. Western Therapeutics Institiute, priority 1995, dated 2000).

Experiments:
[1] = test system: death induced by pulmonary infarction in mice; assay: Antithrombotic activity: inhibition of death by collagen-induced pulmonary infarction in mice; format: in vivo, male ICR mice; settings: Mus musculus, 1 h; 30 mg/kg oral, 10 minutes before i.v. collagen; lethality in an hour; read-out: Pulmonary infarction inhibitory activity
From the text: Pharmacological Experiment 2 Antithrombotic activity
Antithrombotic activity of the test compounds was estimated by an inhibitory activity of the test compound by oral administration against death induced by pulmonary infarction in mice which was introduced by intravenous administration of collagen (pulmonary infarction inhibitory activity).
Male ICR mice (5-week old, body weight; about 25 g) was fasted overnight, and separated into groups (15 mice per each group) and numbered. A test compound solution, which was prepared by suspending a test compound in 1% hydroxypropylmethyl cellulose 2910 TC-5 (HPMC, manufactured by Shin-etsu Chemical Co., Ltd.), was orally administered to the mice, and 10 minutes thereafter, a collagen solution (the method for preparation thereof and a dose thereof are explained hereafter) was injected to the mice at the tail vein at the constant rate. The lethality of the mice was determined by the number of mice which were died in an hour after the administration of collagen solution. The antithrombotic activity of the test compound was estimated by the inhibitory rate (%) of the lethality of the mice. The collagen solution was prepared by dissolving collagen (Type III, manufactured by Sigma Chemical Ltd.) in 0.05 M acetic acid solution containing 2 mM calcium chloride and 5% glucose at 4° C. so that the final concentration of collagen was adjusted to 2.5 mg/ml, and then the pH value thereof was adjusted to pH 7.4 with sodium hydroxide the day before the experiment. The collagen solution was incubated with stirring at 37° C. for two hours, and then further stirred at room temperature overnight. Just before the experiment, the pH value of the collagen solution was adjusted again to pH 7.4. The amount of the collagen solution which was injected at the tail vein was previously determined so that the lethality by pulmonary infarction induced thereby became about 75%.

[2] = test system: platelet aggregation (collagen); assay: Platelet aggregation inhibitory activity, collagen-induced (Born's turbidimetry, rabbit PRP); format: cell-based, male rabbit (NZW); settings: Oryctolagus cuniculus, collagen 20 μg/ml final, 37° C.
Experimental: (§1) Pharmacological Experiment 1 Platelet aggregation inhibitory activity
(§2) (1) Preparation of platelet rich plasma (PRP):
(§3) The blood was collected from the carotid of a male rabbit without anesthesia (NZW species, body weight; 2-3 kg) with mixing thereof with 1/10 volume of citric acid. The blood thus obtained was separated and put into plastic test tubes (each about 7 ml), and centrifuged at 900 rpm for 15 minutes at room temperature to give a turbid supernatant as a platelet rich plasma (PRP). The residue from which PRP is separated was centrifuged at 3000 rpm for 10 minutes, and the supernatant was collected as a platelet poor plasma (PPP). The PRP was diluted with PPP so that the concentration thereof was adjusted to […], and used in the platelet aggregation inhibitory activity test.
(§4) (2) Method for platelet aggregation inhibitory activity test:
(§5) The platelet aggregation was tested according to Born's turbidimetry. That is, a test compound was dissolved in dimethylformamide, and the test compound solution (1 μl) thus obtained was put into a cuvette, and thereto was further added PRP (200 μl). Immediately thereafter, the cuvette was set into an apparatus for determining platelet aggregation activity, PAM-8T (manufactured by Mevanix Inc.), and the mixture was incubated at 37° C. Precisely three minutes thereafter, a solution of adenosine diphosphate (ADP, PA test ADP [MCM], purchased by MC Medical Ltd.) in physiological saline solution or a collagen solution (Collagenreagent Horm, purchased by MC Medical Ltd.) (20 μl) was added thereto. The final concentration of the ADP solution or the collagen solution was 7.5 μM or 20 μg/ml, respectively.
(§6) The maximum aggregation rate and the aggregation inhibitory rate were calculated by the following equations. [formula]
(§7) IC50, which is a concentration of the test compound being required to inhibit the platelet aggregation reaction by 50%, was determined from the aggregation inhibitory rates at two different concentrations of a test compound.

[3] = test system: left common carotid artery injured by balloon; assay: Intima thickening inhibitory activity after balloon injury (3H-thymidine in carotid artery); format: in vivo, male SD rats; settings: Rattus norvegicus; dose 30 mg/kg, oral
Experimental: Pharmacological Experiment 3 Intima thickening inhibitory activity
Male SD rats (6-week old) were separated into groups (8 rats per each group) and numbered. A test compound solution, which was prepared by suspending a test compound in 1% hydroxypropylmethyl cellulose 2910 TC-5 (HPMC, manufactured by Shin-etsu Chemical Co., Ltd.) was orally administered to the rats. In the control group, 1% HPMC solution was orally administered instead of the test compound solution. One or two hours thereafter, two french balloon catheters (manufactured by Baxter Travenol Inc.) were inserted into the left common carotid artery of the rats, and the artery was injured by abrading five times with a balloon. The day of balloon abrasion was considered as Day 0. On the following day (Day 1), a test compound was orally administered to the rats two times a day (in the morning and in the evening). On Day 2, 1.48 MBq/ml of ^3 H-thymidine (dose: 5 ml/kg, manufactured by NEN Research Products, Ltd.) was injected at the tail vein of the rats about one hour after the administration of the test compound so that the time after the balloon injury was fixed to the same in each rat. Precisely 45 minutes after the injection of ^3 H-thymidine at the tail veil, the common carotid artery of the rats was taken out.
In the test compound-treated group, only the left common carotid artery which was injured by balloon was taken out, and in the control group, both the left and right common carotid arteries were taken out. The common carotid artery thus obtained was cut to pieces of exact 1 cm long, and the unnecessary portions such as the outer membrane or the nerves were completely removed. The common carotid artery was put into a glass vial, and thereto was added a 0.5 N sodium hydroxide (0.5 ml), and the mixture was incubated at 37° C. overnight to be solubilized. The mixture was neutralized with a 5 N hydrochloric acid (0.05 ml), and thereto was further added an aqueous hydrogen peroxide solution (0.1 ml). Aquasol II (10 ml, manufactured by Du Pont Co.) was added thereto, and the mixture was well stirred and then allowed to stand for 30 minutes. The radioactivity of tritium in the mixture was counted by liquid scintillation counter. The intima thickening inhibitory activity of the test compound was calculated by the following equation. [formula] L (c): The amount of tritium in the left common carotid artery in the control group (dpm)
R (c): The amount of tritium in the right common carotid artery in the control group (dpm)
L: The amount of tritium in the left common carotid artery in the test compound-treated group (dpm)

[4] = test system: platelet aggregation (ADP); assay: Platelet aggregation inhibitory activity, ADP-induced (Born's turbidimetry, rabbit PRP); format: cell-based, male rabbit (NZW); settings: Oryctolagus cuniculus, ADP 7.5 μM final, 37° C.
Experimental: as §1, §2, §3, §4, §5, §6, §7

[5] = molecular target: T1, cGMP-inhibited cAMP phosphodiesterase (PDE3) (Homo sapiens, UniProt Q14432); assay: cGMP-inhibited cAMP phosphodiesterase (PDE3) inhibitory activity; format: biochemical; settings: 0.4 μM [8-3H]cAMP, pH 8.0, 30° C., 15 minutes; recombinant enzyme from Sf9; read-out: PDE inhibitory activity IC50
T1 construct: made in house; host or cells: insect cell Sf9, baculovirus expression system
T1 sequence (Q14432 whole entry): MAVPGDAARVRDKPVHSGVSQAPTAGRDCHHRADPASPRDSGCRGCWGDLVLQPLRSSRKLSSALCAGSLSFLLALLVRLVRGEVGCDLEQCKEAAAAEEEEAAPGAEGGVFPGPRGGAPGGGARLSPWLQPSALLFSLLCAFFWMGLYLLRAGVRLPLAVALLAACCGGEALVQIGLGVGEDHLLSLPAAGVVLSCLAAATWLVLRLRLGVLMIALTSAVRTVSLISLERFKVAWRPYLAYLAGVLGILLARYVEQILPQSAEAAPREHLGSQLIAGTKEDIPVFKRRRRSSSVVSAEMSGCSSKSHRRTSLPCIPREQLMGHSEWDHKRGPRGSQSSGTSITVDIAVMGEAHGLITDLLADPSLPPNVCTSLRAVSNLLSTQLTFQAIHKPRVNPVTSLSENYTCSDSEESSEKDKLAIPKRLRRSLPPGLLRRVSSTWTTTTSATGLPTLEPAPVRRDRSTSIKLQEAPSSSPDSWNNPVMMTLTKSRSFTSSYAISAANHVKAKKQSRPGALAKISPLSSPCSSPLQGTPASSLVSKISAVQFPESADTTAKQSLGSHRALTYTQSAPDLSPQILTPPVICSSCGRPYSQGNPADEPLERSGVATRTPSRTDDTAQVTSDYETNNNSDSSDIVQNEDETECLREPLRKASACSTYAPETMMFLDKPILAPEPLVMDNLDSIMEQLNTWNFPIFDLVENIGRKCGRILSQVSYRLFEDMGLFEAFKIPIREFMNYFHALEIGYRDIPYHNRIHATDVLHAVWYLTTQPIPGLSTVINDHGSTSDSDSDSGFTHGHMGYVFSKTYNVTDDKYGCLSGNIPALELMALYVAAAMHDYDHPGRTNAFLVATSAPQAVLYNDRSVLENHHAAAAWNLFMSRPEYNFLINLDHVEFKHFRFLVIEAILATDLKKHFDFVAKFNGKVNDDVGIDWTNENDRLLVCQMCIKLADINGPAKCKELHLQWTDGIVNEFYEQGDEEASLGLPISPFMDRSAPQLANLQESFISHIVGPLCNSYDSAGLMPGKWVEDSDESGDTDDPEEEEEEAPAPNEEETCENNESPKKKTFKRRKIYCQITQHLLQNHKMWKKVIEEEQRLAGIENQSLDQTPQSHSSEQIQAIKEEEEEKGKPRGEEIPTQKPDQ

`CN(CCCOc1ccc2[nH]c(=O)ccc2c1)C(=O)N(C)C1CCCCC1` [Ex. 12, 6-[3-(1,3-dimethyl-3-cyclohexylureido)propoxy]carbostyril] gave an inhibition in vivo at 30 mg/kg [1] of 100%, an IC50 [2] of 20.5 µM and an inhibition in vivo at 30 mg/kg [3] of 21.1%. It also gave an IC50 [4] of 31.6 µM and an IC50 [5] of 0.197 µM.
In the case of `CN(NC(=O)NCCCOc1ccc2[nH]c(=O)ccc2c1)C1CCCCC1` [Ex. 28], the inhibition in vivo at 30 mg/kg [1] is reported as 100%, the IC50 [2] is reported as 0.1 µM and the inhibition in vivo at 30 mg/kg [3] is reported as 27.8%. For the same molecule, the IC50 [4] was 0.11 µM and the IC50 [5] was 0.000826 µM.
Molecule `O=C(NCCCOc1ccc2[nH]c(=O)ccc2c1)N(C1CC1)[C@@H]1CCCC[C@H]1OCCCO` [Ex. 17, (R,R)-(-)-6-{3-[3-[trans-2-(3-hydroxypropoxy)cyclohexyl]-3-cyclopropylureido]propoxy}carbostyril] has an inhibition in vivo at 30 mg/kg [1] of 100%, an IC50 [2] of 2.39 µM and an inhibition in vivo at 30 mg/kg [3] of 16%. For the same molecule, the IC50 [4] was 0.14 µM and the IC50 [5] was 0.0608 µM.
`O=C(NCCCOc1ccc2nc(O)ccc2c1)N(C1CC1)[C@H]1CCCC[C@@H]1O` [Ex. 8, (S,S)-(+)-6-{3-[3-(2-Hydroxycyclohexyl)-3-cyclopropylureido]propoxy}-carbostyril] gave an inhibition in vivo at 30 mg/kg [1] of 100%, an IC50 [2] of 2 µM and an inhibition in vivo at 30 mg/kg [3] of 13.3%. For the same molecule, the IC50 [4] was 2.1 µM and the IC50 [5] was 0.113 µM.
